Here are results for 21 compounds from patent US20240270698A2, “NOVEL PYRIMIDINE DERIVATIVE AND USE THEREOF” (KOREA RESEARCH INSTITUTE OF CHEMICAL TECHNOLOGY, priority 2019, published 2024).

The test system of data set [1] is HepG2 cancer cells. As to the kind of experiment: Anticancer activity, cell viability by CCK-8, HepG2. The class given is cell-based. Conditions: HepG2, 10 μM, 72 hours. The procedure:
(§1) Compounds 1 to 119 synthesized in Example 1 according to the present disclosure were assayed for inhibitory activity against MLK3/LRRK2 enzymes and anticancer activity against HepG2/H[…] cancer cells, and the results are summarized in Table 1, below. Assay for anticancer activity was conducted as follows. HepG2 and H[…] cancer cells were purchased from the Korean Cell Line Bank and cultured according to the instruction provided thereby. One hundred μL of a culture of the cells were seeded at a density of 4,000 cells/well into 96-well plates. After 24 hours, the cells were treated with the compounds for 72 hours. Then, cell viability was assayed using CCK-8 and expressed as % of the control.

The target in data set [2] is T1, human recombinant MLK3 protein (Homo sapiens, UniProt Q16584).
T1 construct: purchased Eurofins
T1 sequence (Q16584 whole entry): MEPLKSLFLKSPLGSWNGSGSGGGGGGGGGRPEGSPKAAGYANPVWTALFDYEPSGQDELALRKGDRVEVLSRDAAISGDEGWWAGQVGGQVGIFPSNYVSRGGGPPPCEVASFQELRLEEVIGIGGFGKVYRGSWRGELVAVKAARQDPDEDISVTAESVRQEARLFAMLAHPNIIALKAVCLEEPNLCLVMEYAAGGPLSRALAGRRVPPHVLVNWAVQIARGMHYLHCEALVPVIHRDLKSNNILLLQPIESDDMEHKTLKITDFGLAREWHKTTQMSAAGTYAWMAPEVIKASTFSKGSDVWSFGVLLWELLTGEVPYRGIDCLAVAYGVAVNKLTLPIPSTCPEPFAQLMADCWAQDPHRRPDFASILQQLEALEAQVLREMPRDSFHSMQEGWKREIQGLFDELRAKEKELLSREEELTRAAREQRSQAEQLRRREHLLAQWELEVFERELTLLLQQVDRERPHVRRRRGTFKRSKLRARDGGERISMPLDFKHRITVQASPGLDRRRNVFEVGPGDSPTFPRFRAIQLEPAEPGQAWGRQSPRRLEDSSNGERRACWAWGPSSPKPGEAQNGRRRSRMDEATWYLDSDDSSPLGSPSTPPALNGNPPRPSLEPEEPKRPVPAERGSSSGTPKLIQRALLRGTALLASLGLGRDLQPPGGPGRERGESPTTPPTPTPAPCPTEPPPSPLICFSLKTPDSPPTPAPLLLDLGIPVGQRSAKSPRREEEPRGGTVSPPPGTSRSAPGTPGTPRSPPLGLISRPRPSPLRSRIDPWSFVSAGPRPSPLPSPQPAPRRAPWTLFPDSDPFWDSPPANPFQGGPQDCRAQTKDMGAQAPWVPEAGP
Briefly: MLK3 kinase activity assay (Eurofins, gamma-33P-ATP, filtermat scintillation counting). It is filed as biochemical. Conditions: human recombinant MLK3, 120 minutes at room temperature. On the procedure: (§2) Compounds 1 to 119 synthesized in Example 1 according to the present disclosure were assayed for inhibitory activity against MLK3/LRRK2 enzymes and anticancer activity against HepG2/HS746T cancer cells, and the results are summarized in Table 1, below.
(§3) Inhibitory activity against MLK3 and LRRK2 enzymes was evaluated in Eurofins. In brief, human recombinant MLK3 protein was mixed with the compounds in a reaction buffer (8 mM MOPS (pH 7.0), 0.2 mM EDTA, 0.33 mg/mL myelin basic protein, 5 mM DTT) to which a mixture of 10 mM magnesium acetate and gamma-33P-ATP was then added before incubation at room temperature for 120 minutes. Afterward, the reaction was terminated with 0.5% phosphoric acid. Ten μL of the total mixture was spotted onto a P30 filtermat which was then washed four times for 4 minutes with 0.425% phosphoric acid and once in methanol prior to scintillation counting. Values for the activity of MLK3 were expressed as % of the control. For the activity of LRRK2, human recombinant LRRK2 protein was mixed with the compounds in a reaction buffer (50 mM HEPES (pH 8.0), 0.2 mM EDTA, 0.01% Brij-35, 1% (w/v) BSA, 5 mM DTT, 250 uM substrate peptide RLGRDKYKTLRQIRQ) and then reacted with a mixture of 10 mM magnesium acetate and gamma-33P-ATP at room temperature for 40 minutes. Afterward, the reaction was terminated with 0.5% phosphoric acid. Ten μL of the total mixture was spotted onto a P30 filtermat which was then washed four times for 4 minutes with 0.425% phosphoric acid and once in methanol prior to scintillation counting. Values for the activity of LRRK2 were expressed as % of the control.

For data set [3], the system named is HS746T cancer cells. Briefly: Anticancer activity, cell viability by CCK-8, HS746T. The class given is cell-based. Conditions: 72 hours. The procedure:
as §1

For data set [4], the target named is T2, human recombinant LRRK2 protein (Homo sapiens, UniProt Q5S007).
T2 construct: purchased Eurofins
T2 sequence (Q5S007 whole entry): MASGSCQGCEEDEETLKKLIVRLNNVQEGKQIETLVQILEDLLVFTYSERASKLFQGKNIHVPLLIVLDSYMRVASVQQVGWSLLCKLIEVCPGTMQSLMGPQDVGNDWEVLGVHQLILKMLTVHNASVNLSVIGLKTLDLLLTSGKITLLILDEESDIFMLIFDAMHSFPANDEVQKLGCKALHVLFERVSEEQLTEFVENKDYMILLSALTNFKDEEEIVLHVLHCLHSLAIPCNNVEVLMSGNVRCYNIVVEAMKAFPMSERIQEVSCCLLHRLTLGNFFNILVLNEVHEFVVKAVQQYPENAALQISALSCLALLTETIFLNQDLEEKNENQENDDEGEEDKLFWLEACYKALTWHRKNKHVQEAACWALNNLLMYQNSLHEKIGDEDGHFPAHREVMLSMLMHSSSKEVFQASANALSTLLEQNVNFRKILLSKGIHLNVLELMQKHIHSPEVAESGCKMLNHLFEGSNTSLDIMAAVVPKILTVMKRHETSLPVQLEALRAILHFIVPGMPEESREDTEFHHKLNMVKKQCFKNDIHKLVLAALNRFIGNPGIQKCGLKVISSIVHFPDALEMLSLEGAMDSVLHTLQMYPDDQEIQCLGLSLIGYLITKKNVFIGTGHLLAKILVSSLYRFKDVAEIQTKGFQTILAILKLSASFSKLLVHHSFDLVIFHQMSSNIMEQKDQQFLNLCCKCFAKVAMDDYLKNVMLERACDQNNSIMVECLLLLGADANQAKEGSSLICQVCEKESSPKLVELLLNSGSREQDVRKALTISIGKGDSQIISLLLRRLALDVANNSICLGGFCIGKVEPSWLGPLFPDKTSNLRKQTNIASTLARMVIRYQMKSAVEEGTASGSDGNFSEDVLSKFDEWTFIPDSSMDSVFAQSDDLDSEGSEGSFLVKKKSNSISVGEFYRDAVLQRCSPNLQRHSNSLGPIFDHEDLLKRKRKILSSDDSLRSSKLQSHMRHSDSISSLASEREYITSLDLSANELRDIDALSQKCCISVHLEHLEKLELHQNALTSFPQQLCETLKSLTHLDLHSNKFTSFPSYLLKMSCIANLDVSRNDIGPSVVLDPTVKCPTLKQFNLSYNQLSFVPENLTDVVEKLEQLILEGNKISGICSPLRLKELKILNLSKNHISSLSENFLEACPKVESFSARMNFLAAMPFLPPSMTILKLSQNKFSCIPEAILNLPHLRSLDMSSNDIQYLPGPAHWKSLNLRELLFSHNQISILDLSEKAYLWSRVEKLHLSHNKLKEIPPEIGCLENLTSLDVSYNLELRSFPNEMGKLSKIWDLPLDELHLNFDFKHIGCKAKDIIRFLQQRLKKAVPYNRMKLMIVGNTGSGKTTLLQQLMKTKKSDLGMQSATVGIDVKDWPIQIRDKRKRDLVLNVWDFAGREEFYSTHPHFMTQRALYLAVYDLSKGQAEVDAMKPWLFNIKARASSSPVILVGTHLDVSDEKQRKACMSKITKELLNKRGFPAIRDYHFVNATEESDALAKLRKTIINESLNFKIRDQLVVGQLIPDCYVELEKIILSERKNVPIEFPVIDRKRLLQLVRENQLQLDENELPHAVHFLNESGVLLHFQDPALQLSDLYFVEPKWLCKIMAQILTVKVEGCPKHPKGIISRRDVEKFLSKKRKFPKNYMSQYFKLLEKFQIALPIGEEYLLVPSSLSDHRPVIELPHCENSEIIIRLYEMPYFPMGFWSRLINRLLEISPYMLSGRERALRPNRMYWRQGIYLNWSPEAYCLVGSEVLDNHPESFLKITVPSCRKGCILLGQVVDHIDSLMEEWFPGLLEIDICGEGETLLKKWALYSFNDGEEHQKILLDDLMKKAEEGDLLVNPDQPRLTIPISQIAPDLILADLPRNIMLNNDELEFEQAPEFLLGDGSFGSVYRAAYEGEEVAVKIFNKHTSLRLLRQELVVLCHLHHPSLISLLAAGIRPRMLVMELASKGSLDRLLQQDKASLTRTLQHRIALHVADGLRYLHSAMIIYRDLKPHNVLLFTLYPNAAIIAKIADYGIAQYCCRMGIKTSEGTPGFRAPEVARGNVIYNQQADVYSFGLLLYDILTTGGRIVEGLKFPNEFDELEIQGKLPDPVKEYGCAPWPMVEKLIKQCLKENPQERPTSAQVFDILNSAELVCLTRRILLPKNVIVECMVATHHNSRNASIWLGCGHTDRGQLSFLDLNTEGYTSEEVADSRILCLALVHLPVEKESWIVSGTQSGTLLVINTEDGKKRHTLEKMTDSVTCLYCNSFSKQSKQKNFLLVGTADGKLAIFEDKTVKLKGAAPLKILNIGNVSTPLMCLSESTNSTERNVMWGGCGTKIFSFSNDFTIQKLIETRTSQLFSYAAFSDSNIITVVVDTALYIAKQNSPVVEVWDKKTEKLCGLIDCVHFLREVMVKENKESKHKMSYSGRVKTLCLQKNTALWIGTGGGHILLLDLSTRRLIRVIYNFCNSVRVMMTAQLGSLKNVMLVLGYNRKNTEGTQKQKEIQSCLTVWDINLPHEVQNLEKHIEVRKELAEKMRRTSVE
As to the kind of experiment: LRRK2 kinase activity assay (Eurofins, gamma-33P-ATP, filtermat scintillation counting). To be noted: human recombinant LRRK2, 40 minutes at room temperature. It is filed as biochemical. The procedure:
as §2, §3

pIC50: −log10 of the molar value.

For `Cc1ccc(-c2n[nH]c3ccc(Nc4ncc(Cl)c(Nc5ccccc5P(C)(C)=O)n4)cc23)cc1Cl` [compound 112, (2-((5-Chloro-2-((3-(3-chloro-4-methylphenyl)-1H-indazol-5-yl)amino)pyrimidin-4-yl)amino)phenyl)dimethylphosphine oxide], the “Cell viability (% of Con. 10 μM) HepG2” value in data set [1] was 6 % of Con. Further, the pIC50 in data set [2] is 8.00 to 9.00; in data set [4], 7.00 to 8.00. In addition, the “Cell viability (% of Con. 10 μM) HS746T” value in data set [3] is reported as 7 % of Con.
The corresponding values for `Cc1cc2cc(Nc3ncc(Cl)c(Nc4ccccc4P(C)(C)=O)n3)ccc2[nH]1` [compound 69, (2-((5-Chloro-2-((2-methyl-1H-indol-5-yl)amino)pyrimidin-4-yl)amino)phenyl)dimethylphosphine oxide] are 29 % of Con, 8.00 to 9.00, 8.00 to 9.00 and 23 % of Con.
With `CP(C)(=O)c1ccccc1Nc1nc(Nc2ccc3[nH]nc(-c4ccc(O)cc4)c3c2)ncc1Cl` [compound 108, (2-((5-chloro-2-((3-(4-hydroxyphenyl)-1H-indazol-5-yl)amino)pyrimidin-4-yl)amino)phenyl)dimethylphosphine oxide], the “Cell viability (% of Con. 10 μM) HepG2” value in data set [1] is given as 67 % of Con. For the same compound, the results for the pIC50 in data set [2] and in data set [4] were 8.00 to 9.00 and 7.00 to 8.00, respectively. The “Cell viability (% of Con. 10 μM) HS746T” value in data set [3] is given as 8 % of Con.
For `CP(C)(=O)c1ccccc1Nc1nc(Nc2ccc3[nH]nc(-c4ccc(OC(F)(F)F)cc4)c3c2)ncc1Cl` [compound 110, (2-((5-Chloro-2-((3-(4-(trifluoromethoxy)phenyl)-1H-indazol-5-yl)amino)pyrimidin-4-yl)amino)phenyl)dimethylphosphine oxide], the “Cell viability (% of Con. 10 μM) HepG2” value in data set [1] was 24 % of Con. Besides, the values for the pIC50 in data set [2] and in data set [4] were 8.00 to 9.00 and 7.00 to 8.00, respectively. Moreover, the “Cell viability (% of Con. 10 μM) HS746T” value in data set [3] is reported as 12 % of Con.
As for `CC1NCCc2ccc(Nc3ncc(Cl)c(Nc4ccccc4P(C)(C)=O)n3)cc21` (stereo not drawn) [compound 51, (2-((5-Chloro-2-((1-methyl-1,2,3,4-tetrahydroisoquinolin-7-yl)amino)pyrimidin-4-yl)amino)phenyl)dimethylphosphine oxide], the “Cell viability (% of Con. 10 μM) HepG2” value in data set [1] is 24 % of Con. The pIC50 in data set [2] and in data set [4] was 8.00 to 9.00 each time. Besides, in data set [3], the “Cell viability (% of Con. 10 μM) HS746T” value is reported as 2 % of Con.
As to `CP(C)(=O)c1ccccc1Nc1nc(NCc2ccc(F)cc2)ncc1Cl` [compound 12, (2-((5-Chloro-2-((4-fluorobenzyl)amino)pyrimidin-4-yl)amino)phenyl)dimethylphosphine oxide], the “Cell viability (% of Con. 10 μM) HepG2” value in data set [1] was 85 % of Con. The pIC50 in data set [2] and in data set [4] was less than 6.00 throughout. Further, the “Cell viability (% of Con. 10 μM) HS746T” value in data set [3] is 97 % of Con.
As to `CC(C)S(=O)(=O)c1ccccc1Nc1nc(Nc2cc(F)cc(F)c2)ncc1Cl` [compound 6, 5-Chloro-N^2-(3,5-difluorophenyl)-N^4-(2-(isopropylsulfonyl)phenyl) pyrimidine-2,4-diamine], the pIC50 in data set [2] and in data set [4] was 6.00 to 7.00 in each case.
Consider `CC(=O)c1ccc(-c2n[nH]c3ccc(Nc4ncc(Cl)c(Nc5ccccc5P(C)(C)=O)n4)cc23)cc1` [compound 106, 1-(4-(5-((5-chloro-4-((2-(dimethylphosphoryl)phenyl)amino)pyrimidin-2-yl)amino)-1H-indazol-3-yl)phenyl)ethan-1-one], for which, in data set [1], the “Cell viability (% of Con. 10 μM) HepG2” value is listed as 75 % of Con. For the same compound, the pIC50 in data set [2] was 8.00 to 9.00; in data set [4], 7.00 to 8.00. Moreover, in data set [3], the “Cell viability (% of Con. 10 μM) HS746T” value is 17 % of Con.
The corresponding values for `Cc1cc(Nc2ncc(Cl)c(Nc3ccccc3P(C)(C)=O)n2)ccn1` [compound 10, (2-((5-Chloro-2-((2-methylpyridin-4-yl)amino)pyrimidin-4-yl)amino)phenyl)dimethylphosphine oxide] are 91 % of Con, less than 6.00, less than 6.00 and 120 % of Con.
Turning to `Cc1cc(C)cc(Nc2ncc(Cl)c(Nc3ccccc3S(=O)(=O)C(C)C)n2)c1` [compound 3, 5-Chloro-N^2-(3,5-dimethylphenyl)-N^4-(2-(isopropylsulfonyl)phenyl) pyrimidine-2,4-diamine], the pIC50 in data set [2] and in data set [4] was 6.00 to 7.00 in each case.
Regarding `CP(C)(=O)c1ccccc1Nc1nc(Nc2ccc3[nH]nc(-c4cccnc4F)c3c2)ncc1Cl` [compound 83, (2-((5-Chloro-2-((3-(2-fluoropyridin-3-yl)-1H-indazol-5-yl)amino)pyrimidin-4-yl)amino)phenyl)dimethylphosphine oxide], the pIC50 in data set [2] and in data set [4] was 8.00 to 9.00 throughout. The “Cell viability (% of Con. 10 μM) HS746T” value in data set [3] was 11 % of Con.
For `CP(C)(=O)c1ccccc1Nc1nc(Nc2cnc3[nH]ncc3c2)ncc1Cl` [compound 82, (2-((2-((1H-Pyrazolo[3,4-b]pyridin-5-yl)amino)-5-chloropyrimidin-4-yl)amino)phenyl)dimethylphosphine oxide], the pIC50 in data set [2] and in data set [4] was 7.00 to 8.00 in each case. Also, the “Cell viability (% of Con. 10 μM) HS746T” value in data set [3] was 18 % of Con.
For the compound `Cn1ncc2cc(Nc3ncc(Cl)c(Nc4ccccc4P(C)(C)=O)n3)cnc21` [compound 78], the pIC50 was 7.00 to 8.00 in data set [2] and 8.00 to 9.00 in data set [4]. Also, the “Cell viability (% of Con. 10 μM) HS746T” value in data set [3] is given as 17 % of Con.
The corresponding values for `CP(C)(=O)c1ccccc1Nc1nc(Nc2ccc3[nH]nc(-c4ccc(C=O)o4)c3c2)ncc1Cl` [compound 92, 5-(5-((5-Chloro-4-((2-(dimethylphosphoryl)phenyl)amino)pyrimidin-2-yl)amino)-1H-indazol-3-yl)furan-2-carbaldehyde] are 8.00 to 9.00, 8.00 to 9.00 and 14.1 % of Con.
The corresponding values for `CP(C)(=O)c1ccccc1Nc1nc(Nc2ccc3[nH]nc(C4=CCNCC4)c3c2)ncc1Cl` [compound 91] are 8.00 to 9.00, 8.00 to 9.00 and 5.8 % of Con.
As to `CC(C)S(=O)(=O)c1ccccc1Nc1nc(Nc2cc(F)c(Br)c(F)c2)ncc1Cl` [compound 4, N^2-(4-Bromo-3,5-difluorophenyl)-5-chloro-N^4-(2-(isopropylsulfonyl)phenyl)pyrimidine-2,4-diamine], the pIC50 in data set [2] is 6.00 to 7.00; in data set [4], 7.00 to 8.00.
Consider `CC(C)(C)OC(=O)N1CC=C(c2n[nH]c3ccc(Nc4ncc(Cl)c(Nc5ccccc5P(C)(C)=O)n4)cc23)CC1` [compound 85, Tert-butyl 4-(5-((5-chloro-4-((2-(dimethylphosphoryl)phenyl)amino)pyrimidin-2-yl)amino)-1H-indazol-3-yl)-3,6-dihydropyridine-1(2H)-carboxylate], for which the pIC50 in data set [2] and in data set [4] was 8.00 to 9.00 throughout. Moreover, the “Cell viability (% of Con. 10 μM) HS746T” value in data set [3] was 6 % of Con.
As to `CC(C)S(=O)(=O)c1ccccc1Nc1nc(Nc2cc(C(F)(F)F)cc(C(F)(F)F)c2)ncc1Cl` [compound 5, N^2-(3,5-bis(trifluoromethyl)phenyl)-5-chloro-N^4-(2-(isopropylsulfonyl)phenyl)pyrimidine-2,4-diamine], the pIC50 in data set [2] was 7.00 to 8.00; in data set [4], 6.00 to 7.00.
For the compound `CP(C)(=O)c1ccccc1Nc1nc(Nc2ccc3[nH]nc(-c4cn[nH]c4)c3c2)ncc1Cl` [compound 84, (2-((2-((3-(1H-Pyrazol-4-yl)-1H-indazol-5-yl)amino)-5-chloropyrimidin-4-yl)amino)phenyl)dimethylphosphine oxide], the pIC50 in data set [2] and in data set [4] was 8.00 to 9.00 each time. Also, the “Cell viability (% of Con. 10 μM) HS746T” value in data set [3] was 11 % of Con.
On to `CP(C)(=O)c1ccccc1Nc1nc(Nc2cnc3[nH]ccc3c2)ncc1Cl` [compound 79, (2-((2-((1H-Pyrrolo[2,3-b]pyridin-5-yl)amino)-5-chloropyrimidin-4-yl)amino)phenyl)dimethylphosphine oxide], for which the pIC50 in data set [2] was 7.00 to 8.00; in data set [4] it was 8.00 to 9.00. Further, the “Cell viability (% of Con. 10 μM) HS746T” value in data set [3] is on record as 19 % of Con.
Take `CC(C)S(=O)(=O)c1ccccc1Nc1nc(Nc2cc(Cl)cc(Cl)c2)ncc1Cl` [compound 2, 5-Chloro-N^2-(3,5-dichlorophenyl)-N^4-(2-(isopropylsulfonyl)phenyl) pyrimidine-2,4-diamine]: the pIC50 in data set [2] and in data set [4] was 6.00 to 7.00 throughout.
